The Kd is the free concentration of one partner at which half of the binding sites on the other are occupied at equilibrium, for simple one-to-one binding.

SMILES strings stand for the structures.

Drawing on publication PMC13245809 (Nature chemistry, 2026), this text covers Kd for three molecules.

Assay [1] deals with FABLE. Briefly: fluorescence titration, single-site binding model. More on the design: species or system synthetic construct.
Assay [2] concerns the target FABLE. The experiment in a line: fluorescence titration, global single-site fit. Format: binding, synthetic construct.

Consider `CCN(CC)c1ccc2c(C(F)(F)F)cc(=O)oc2c1` [Cou481], for which the affinity at FABLE [1], expressed as Kd, was 5.8 ± 0.7 µM.
Turning to `CN(C)c1ccc2c(C(F)(F)F)cc(=O)oc2c1` [Cou485, 7-(dimethylamino)-4-(trifluoromethyl)coumarin], the Kd at FABLE [2] is 27.8 ± 1 µM.
`O=c1cc(C(F)(F)F)c2cc3c4c(c2o1)CCCN4CCC3` [Cou540a] displayed a Kd on FABLE [1] of 2 ± 0.1 µM.
